Laboratory results published in patent US5539123A, “Low molecular weight thiocarbamates as inhibitors of elastase, uses and method of synthesis” (University of Kentucky Research Foundation, priority 1994, dated 1996).
Values joined by “and” are separate entries in the source; they are usually repeats but may differ in a detail not shown here. Identical values can stand only once. “Also recorded” adds a separate entry of the source.

Test system: Zymosan Induced Inflammation
Experiment: Zymosan-induced paw inflammation (arthritis) in rats, percent volume increase of the paw
Format: in vivo, rat
Details: for % Oedema Volume change: 3.6 × 10^-5 mg/g IP vs control
From the text: A reversible arthritic condition was induced according to known procedures for the Zymosan-induced arthritis (See J. P. Tarayre, A. Delphon, et al., Pharmacological studies in zymosan inflammation in rats and mice, I: Zymosan-induced paw edema in rat and mice, Pharmacological Research, 21, (#4) 375-384 (1989); Takuo Sato, Yoshitaka Ino, et al., Inhibitory effects of a novel synthetic protease inhibitor (FUT-175), on the paw edema in rats and Zymosan-induced compliment activation in vitro, Japan J. Pharmacol., 42,587-589 (1986); David K. Gremmell, et al., Comparative effects of drugs on four paw edema models on the rat, Agents and Actions 4, (#1) 107-116 (1979); and D. C. Keystone, et al., Zymosan-induced arthritis: A model of chronic proliferative arthritis following activation of the alternative pathway of compliment, Arthritis and Rheumatism 20 (#7) 1396-1401 (1977)).
Each rat (250 g each) was kept in a restraining cage with light ether anesthesia until the administration of the drug. The procedure involves the intramuscular (IM) injection of 1 mg of Zymosan in 50 μL (microliters) of normal saline in the pad of a hind paw of the rat. Swelling becomes evident within 20 minutes and reaches a maximum within 1.5 hours. The swelling disappears after 24 hours. In the Figures the reversal to normal size of the paw within 24 hours is not shown. The degree of swelling is measured by a water displacement method and the percent (%) of volume increase of the paw is plotted against time (see J. P. Tarayre, A. Delphon, et al., Pharmacological studies in zymosan inflammation in rats and mice. I: Zymosan-induced paw edema in rat and mice, Pharmaco-logical Research, 21, (#4) 375-384 (1989); Takuo Sato, Yoshitaka Ino, et al., Inhibitory effects of a novel synthetic protease inhibitor (FUT-175), on the paw edema in rats and Zymosan-induced compliment activation in vitro, Japan J. Pharmacol., 42, 587-589 (1986)).
Control was conducted by injecting I.P. 100 μl of propylene glycol (the vehicle) 15 min. prior to Zymosan administration. […] Data from tables 1 and 1a are plotted in FIGS. 1 and 1a respectively.
In the experimental procedure the drug [PC-16, […] (FIG. 2) or 90 μg/rat (FIG. 3)] is dissolved in 100 μL of propylene glycol and is injected IP to the rats. Fifteen minutes later the Zymosan (1mg/50 μL of normal saline) solution is injected IM into the paw of the rats. The degree of swelling is subsequently measured at various time intervals for a period of 24 hours and is reported up to 4 hours.

[1] = 3.6 × 10^-4 mg/g IP, time (min) = first number of the line

In the case of CCCCNC(=O)Sc1nnnn1-c1ccccc1 [PC-16], the “% Volume Increase” value (3.6 × 10^-4 mg/g IP, 205 min) is reported as 3.41%, the “% Volume Increase, Mean of 3 experiments” value (3.6 × 10^-4 mg/g IP, 210 min) is reported as 3.48% and the “% Volume Increase, Mean of 3 experiments” value (3.6 × 10^-4 mg/g IP, 220 min) is reported as 3.30%. For the same compound, the “% Volume Increase” value (3.6 × 10^-4 mg/g IP, 225 min) was 3.32%, the “% Volume Increase, Mean of 3 experiments” value (3.6 × 10^-4 mg/g IP, 230 min) was 3.34% and the “% Volume Increase, Mean of 3 experiments” value (3.6 × 10^-4 mg/g IP, 240 min) was 2.93%. The “% Volume Increase, Experiment #3” value [1] was 0.00% and 1.02% and 1.55% and 2.18% and 2.75% and 3.44% and 3.50%, the “Volume, Experiment #3” value [1] was 1.65 mL and 1.67 mL and 1.68 mL and 1.69 mL and 1.70 mL and 1.71 mL and the “% Oedema Volume change” value (10 min) was 28.0%. For the same compound, the “% Oedema Volume change” value (20 min) was -42.8%, the “% Oedema Volume change” value (30 min) was -54.1% and the “% Oedema Volume change” value (40 min) was -58.3%. For the same compound, the “% Oedema Volume change” value (50 min) was -60.8%, the “% Oedema Volume change” value (60 min) was -65.8% and the “% Oedema Volume change” value (65 min) was -64.8%. For the same compound, the “% Oedema Volume change” value (70 min) was -65.7%, the “% Oedema Volume change” value (80 min) was -63.9% and the “% Oedema Volume change” value (95 min) was -66.4%. For the same compound, the “% Oedema Volume change” value (100 min) was -68.2%, the “% Oedema Volume change” value (105 min) was -68.7% and the “% Oedema Volume change” value (115 min) was -69.9%. The “% Oedema Volume change” value (120 min) was -69.6%, the “% Oedema Volume change” value (130 min) was -68.8% and the “% Oedema Volume change” value (135 min) was -65.8%. The “% Oedema Volume change” value (145 min) was -64.6%, the “% Oedema Volume change” value (150 min) was -67.7% and the “% Oedema Volume change” value (160 min) was -67.4%. The “% Oedema Volume change” value (175 min) was -66.7%, the “% Oedema Volume change” value (190 min) was -69.2% and the “% Oedema Volume change” value (200 min) was -67.6%. For the same compound, the “% Oedema Volume change” value (205 min) was -65.6%, the “% Oedema Volume change” value (210 min) was -63.4% and the “% Oedema Volume change” value (220 min) was -61.2%. The “% Oedema Volume change” value (225 min) was -61.9%, the “% Oedema Volume change” value (240 min) was -62.7% and the “% Volume Increase, Mean of 3 experiments” value (3.6 × 10^-5 mg/g IP, 0 min) was 0.00%. For the same compound, the “% Volume Increase, Mean of 3 experiments” value (3.6 × 10^-5 mg/g IP, 10 min) was 12.2%, the “% Volume Increase, Mean of 3 experiments” value (3.6 × 10^-5 mg/g IP, 20 min) was 16.3% and the “% Volume Increase, Mean of 3 experiments” value (3.6 × 10^-5 mg/g IP, 30 min) was 17.3%. For the same compound, the “% Volume Increase, Mean of 3 experiments” value (3.6 × 10^-5 mg/g IP, 40 min) was 18.8%, the “% Volume Increase, Mean of 3 experiments” value (3.6 × 10^-5 mg/g IP, 50 min) was 19.1% and the “% Volume Increase, Mean of 3 experiments” value (3.6 × 10^-5 mg/g IP, 60 min) was 19.5%. For the same compound, the “% Volume Increase, Mean of 3 experiments” value (3.6 × 10^-5 mg/g IP, 65 min) was 19.8%, the “% Volume Increase, Mean of 3 experiments” value (3.6 × 10^-5 mg/g IP, 70 min) was 20.0% and the “% Volume Increase, Mean of 3 experiments” value (3.6 × 10^-5 mg/g IP, 80 min) was 20.5%. For the same compound, the “% Volume Increase, Mean of 3 experiments” value (3.6 × 10^-5 mg/g IP, 95 min) was 19.7%, the “% Volume Increase, Mean of 3 experiments” value (3.6 × 10^-5 mg/g IP, 100 min) was 18.6% and the “% Volume Increase, Mean of 3 experiments” value (3.6 × 10^-5 mg/g IP, 105 min) was 18.4%. The “% Volume Increase, Mean of 3 experiments” value (3.6 × 10^-5 mg/g IP, 115 min) was 17.9%, the “% Volume Increase, Mean of 3 experiments” value (3.6 × 10^-5 mg/g IP, 120 min) was 17.7% and the “% Volume Increase, Mean of 3 experiments” value (3.6 × 10^-5 mg/g IP, 130 min) was 17.7%. For the same compound, the “% Volume Increase, Mean of 3 experiments” value (3.6 × 10^-5 mg/g IP, 135 min) was 17.7%, the “% Volume Increase, Mean of 3 experiments” value (3.6 × 10^-5 mg/g IP, 145 min) was 17.7% and the “% Volume Increase, Mean of 3 experiments” value (3.6 × 10^-5 mg/g IP, 150 min) was 15.6%. For the same compound, the “% Volume Increase, Mean of 3 experiments” value (3.6 × 10^-5 mg/g IP, 160 min) was 15.2%, the “% Volume Increase, Mean of 3 experiments” value (3.6 × 10^-5 mg/g IP, 175 min) was 14.4% and the “% Volume Increase, Mean of 3 experiments” value (3.6 × 10^-5 mg/g IP, 190 min) was 12.6%. The “% Volume Increase, Mean of 3 experiments” value (3.6 × 10^-5 mg/g IP, 200 min) was 13.3%, the “% Volume Increase, Mean of 3 experiments” value (3.6 × 10^-5 mg/g IP, 205 min) was 13.5% and the “% Volume Increase, Mean of 3 experiments” value (3.6 × 10^-5 mg/g IP, 210 min) was 13.6%. For the same compound, the “% Volume Increase, Mean of 3 experiments” value (3.6 × 10^-5 mg/g IP, 220 min) was 13.6%, the “% Volume Increase, Mean of 3 experiments” value (3.6 × 10^-5 mg/g IP, 225 min) was 12.4% and the “% Volume Increase, Mean of 3 experiments” value (3.6 × 10^-5 mg/g IP, 240 min) was 12.1%. The “oedema reduction of rat paw” value (injected prior to Zymosan, compared with control) was “impressive oedema reduction; also recorded: impressive reduction in edema swelling”.
